# Laboratory results as given in PMC10352304 (2023).
# *1 amine or outer side, *2 acyl side, *3 side chain or, on linkers, in order; H or OH if unused. Where a SMILES comes first, the peptide text is derived from it. Bridges are numbered along the chain shown (N, C = ends). Roman numbers before positions name the chains, in order. [ ]: non-standard residue; d: D form. Actinocin(9to1) = Cc1c2oc3c(C)ccc(C(=O)[*:1])c3nc-2c(C(=O)[*:2])c(N)c1=O; NMeV = CN[C@H](C(=O)O)C(C)C; Sar = CNCC(=O)O
# Columns and labels:
# [1] = system: CP (DNA, duplex) AGGTTGGTGAGTGATTGGAGGTT/AATCACTCACCAACCT; experiment: BIND strand displacement fluorescence, McGhee-von Hippel fit; conditions: none (no metal cations), 1x TE, 37 °C, 20 nM CP, 10 nM invader I, per base
# [2] = system: CP (DNA, duplex) AGGTTGGTGAGTGATTGGAGGTT/AATCACTCACCAACCT; experiment: fluorescence turn-on; conditions: 20 nM CP; site size 2.4; per base
# [3] = system: CP (C 28nt / P 21nt) (DNA, duplex) ACAAGAGGTTGGTGAGTGATTGGAGGTT/AATCACTCACCAACCTCTTGT; experiment: BIND strand displacement fluorescence; conditions: none (no metal cations); 1x TE, 37 °C; critical binder concentration scales with duplex length
# [4] = system: CP (C 18nt / P 11nt) (DNA, duplex) GGTGAGTGATTGGAGGTT/AATCACTCACC; experiment: BIND strand displacement fluorescence; conditions: none (no metal cations); 1x TE, 37 °C; critical binder concentration scales with duplex length
# [5] = system: sink probe 5'-GCGCC-3' (DNA, hairpin) CGCGCGGCAAAAAGCCGCGCG; experiment: competitive BIND, sink against CP; conditions: none (no metal cations); 1x TE, 37 °C; sink in up to 100-fold excess over CP
# [6] = system: sink probe 5'-TAAAT-3' (DNA, hairpin) CGATTTACAAAAAGTAAATCG; experiment: competitive BIND, sink against CP; conditions: none (no metal cations); 1x TE, 37 °C; sink in up to 100-fold excess over CP
# [7] = system: CP (75% GC) (DNA, duplex) GGGCTACGCGATGCGCGGAGGTT/GCGCATCGCGTAGCCC; experiment: BIND strand displacement fluorescence, McGhee-von Hippel fit; conditions: none (no metal cations); 1x TE, 37 °C; 20 nM CP, 10 nM invader I; per base
# [8] = system: CP (25% GC) (DNA, duplex) AATTCGATTAGCAATTGGAGGTT/AATTGCTAATCGAATT; experiment: as above; conditions: none (no metal cations); 1x TE, 37 °C; 20 nM CP, 10 nM invader I; per base
# [9] = system: CP (DNA, duplex) AGGTTGGTGAGTGATTGGAGGTT/AATCACTCACCAACCT; experiment: BIND strand displacement fluorescence; conditions: none (no metal cations); 1x TE, 37 °C; 20 nM CP, 10 nM invader I
smiles,measurement,setting,value
CCCN(CCCN(C)C)c1cc(C=C2Sc3ccccc3N2C)c2ccccc2[n+]1-c1ccccc1,Kd,"[1]; site size 2.6, b11 prints 7.1 nM",0.007 µM
same,Kd,[2],0.0093 µM
same,binding,[3],yes
same,binding,[4],yes
Cn1cc(NC(=O)c2cc(NC(=O)CN=C(N)N)cn2C)cc1C(=O)NCCC(=N)N,binding,[5],no
"Cc1c2oc3c(C)ccc(C(=O)N[C@@H]4C(=O)N[C@H](C(C)C)C(=O)N5CCC[C@H]5C(=O)N(C)CC(=O)N(C)[C@@H](C(C)C)C(=O)O[C@@H]4C)c3nc-2c(C(=O)N[C@@H]2C(=O)N[C@H](C(C)C)C(=O)N3CCC[C@H]3C(=O)N(C)CC(=O)N(C)[C@@H](C(C)C)C(=O)O[C@@H]2C)c(N)c1=O (I: T[dV]P[Sar][NMeV] / II: T[dV]P[Sar][NMeV]; ester I:1-I:C, II:1-II:C; linker I:N-II:N via Actinocin(9to1))",binding,[6],no
same,Kd,[7],0.083 µM
same,Kd,[8],0.983 µM
c1ccc(C[n+]2cccc3ccccc32)cc1,binding,[9],no
[Ru+2].c1cnc2c(c1)ccc1cccnc12.c1cnc2c(c1)ccc1cccnc12.c1cnc2c(c1)ccc1cccnc12,binding,[9],weak
CCN(CC)CCn1nc2c3c(cccc3c1=O)-c1ccccc1-2,Kd,[1]; site size 1.3,0.212 µM
